Measurements: patent US20260166115A1, “POLYUNSATURATED FATTY ACID-BOUND ALPHA FETOPROTEIN PROMOTES IMMUNE SUPPRESSION BY ALTERING HUMAN DENDRITIC CELL METABOLISM” (The Regents of the University of California, priority 2022, published 2026)

What was measured:
Assay type in all cases: cell-based, human
iDCs = test: Fatty acid screen: fatty acids titrated onto iDCs without OVA, nAFP or tAFP; settings: for lactate production: relative to control cells, 16:0 at 5-20 μM in b86
From the text: We developed an in vitro assay to screen specific FAs that are necessary for tAFP-mediated suppression of DC formation (FIG. 6A). Many of the FAs screened have known roles in promoting (Weatherill, A. R. et al. Saturated and Polyunsaturated Fatty Acids Reciprocally Modulate Dendritic Cell Functions Mediated through TLR4. J Immunol. 174, 5390-5397 (2005); Lancaster, G. I. et al. Evidence that TLR4 Is Not a Receptor for Saturated Fatty Acids but Mediates Lipid-Induced Inflammation by Reprogramming Macrophage Metabolism. Cell Metab. 27, 1096-1110.e5 (2018)) or limiting DC differentiation (Zeyda, M. et al. Polyunsaturated Fatty Acids Block Dendritic Cell Activation and Function Independently of NF-κB Activation. J Biol. Chem. 280, 14293-14301 (2005)). Therefore, to determine their necessity for tAFP-mediated DC suppression, we titrated several FAs unique to tAFP (20:3 N6, 20:5, and 22:5 N3), and other PUFAs to determine the concentration they lost their inherent ability to suppress DC differentiation in the absence of OVA, nAFP, or tAFP (FIG. 6A). […] All three PUFAs at high concentrations inhibited CD206 expression on DCs (Zeyda. M. et al. Polyunsaturated Fatty Acids Block Dendritic Cell Activation and Function Independently of NF-κB Activation. J Biol. Chem. 280, 14293-14301 (2005)), at levels equivalent to or greater than tAFP treatment.
Fatty acids were resuspended in ethanol and stored at −20° C. at 100 uM. […] Both the native preparations and HMM fractions contained similar amounts of protein (˜0.5 mg/mL), whereas protein was undetectable ([…]) in the low molar mass (LMM) fraction. […] Fats (+/−HMM) were added to pre-warmed media and incubated for 1 hour, mixing at 37° C. before adding to cells (Alsabeeh, N., Chausse, B., Kakimoto, P. A., Kowaltowski, A. J. & Shirihai, O. Cell Culture Models of Fatty Acid Overload: Problems and Solutions. Biochim. Biophys. Acta 1863, 143-151 (2018)). Fats were combined with HMM at a 3:1 molar ratio, as previously described (Alsabeeh, N., Chausse, B., Kakimoto, P. A., Kowaltowski, A. J. & Shirihai. O. Cell Culture Models of Fatty Acid Overload: Problems and Solutions. Biochim. Biophys. Acta 1863, 143-151 (2018)).

iDCs and mDCs = test: Fatty acid screen: fatty acids added back to HMM OVA, nAFP or tAFP; settings: for CD206 expression at the iDC stage / inhibition of CD206 expression, mDC: FA combined with tAFP; for CD206 expression compared to controls: FA+HMM tAFP
Experimental: Fatty acids were resuspended in ethanol and stored at −20° C. at 100 uM.

[1] = system: monocyte-derived dendritic cells (DCs); test: Glucose and lactate measurements in DC cultures; settings: DC
From the text: (§1) DCs were differentiated in vitro similarly as previously described (Pardee, A. D., Shi, J. & Butterfield, L. H. Tumor-Derived α-Fetoprotein Impairs the Differentiation and T Cell Stimulatory Activity of Human Dendritic Cells. J Immunol. 193, 5723-5732 (2014)). In brief, cryopreserved PBMC were thawed and CD14*monocytes were magnetically labeled using CD14 MicroBeads (Miltenyi, Cat #130-050-201) and isolated by LS columns (Miltenyi, Cat #130-042-401) per the manufacturer instructions. Viable eluted cells were enumerated using trypan blue on a Nexcelom Cellometer Spectrum. To generate iDCs, monocytes were stimulated for 5 days in the presence of 800 IU/mL of rGM-CSF (Miltenyi, Cat #130-093-862) and 500 IU/mL of rIL-4 (Miltenyi, Cat #130-095-373) as well as OVA, nAFP, or tAFP in CellGenix® GMP DC media (Cat #20801-0500) 37° C. at 5% CO2. Lastly, we performed an additional 24-hour stimulation with 1000 IU/mL of rIFN-γ (Peprotech, Cat #300-02) and 250 ng/mL of LPS (Sigma Aldrich, Cat #L2630-10MG) to produce mDCs. To harvest cells, DC were detached using TrypLE™ Select (Gibco, Cat #12563011) for 15 minutes at 37° C. and then washed several times with cold PBS.
Glucose and lactate were measured by applying approximately 5 μL of supernatant to Clarity BG1000 Blood Glucose strips (Cat #75840-798) and meter (Cat #75840-800) system or the Lactate Plus strips (Nova Biomedical©, Cat #40813) and meter version 2 (Nova Biomedical©, Cat #62624) system. Each meter was quality checked with control glucose and lactate solutions and CellGenix™ media before each experiment.

[2] = system: monocyte-derived dendritic cells (DCs); test: SCENITH single-cell energetic metabolism profiling of treated DCs; settings: DC
From the text: as §1
SCENITH was performed as described in (Arguello et al., 2020). SCENITH™ reagents kit (inhibitors, puromycin and antibodies) were obtained from www.scenith.com/try-it and used according to the provided protocol for in-vitro derived myeloid cells. Briefly, control and tol-moDC cultures at desired timepoints, were treated for 18 minutes with Control (DMSO), 2-Deoxy-Glucose (2-DG; 100 mM), Oligomycin (0; 1 μM), a combination of 2DG and Oligomycin (DGO) or Harringtonine (H; 2 μg/mL). Following metabolic inhibitors, Puromycin (final concentration 10 μg/mL) was added to cultures for 17 min. After puromycin treatment, cells were detached from wells using TypLE Select (Fisher Scientific, 505914419), washed in cold PBS and stained with a combination of Human TureStain FcX (Biolegend, 422301) and fluorescent cell viability dye (Biolegend, 423105) for 10 min 4° C. in PBS. Following PBS wash step, primary antibodies against surface markers were incubated for 25 min at 4° C. in Brilliant Stain Buffer (BD Biosciences, 563794). Next cells were fixed and permeabilized using True-Nuclear Transcription Factor Buffer Set (Biolegend, 424401) as per manufacturer instructions. Intracellular staining of puromycin and protein targets was performed for 1 h in diluted (10×) permeabilization buffer at 4° C. Finally, data acquisition was performed using the Cytek Aurora flow cytometer. Primary conjugated antibody information used in SCENITH panel is listed in supplementary table 1. All antibodies were titrated to reduce spillover and increase resolution using single stained moDC (generated as described above) samples. Unstained cell controls used for autofluorescence extraction were generated for each time point, culture conditions (control, vitd3-tol-moDC and dexa-vitd3-tol-moDC) and metabolic inhibitor treatments (C, 2DG, O, DGO). Samples were unmixed using reference controls generated in combination with stained Ultracomp beads (Fisher Scientific, 01-2222-41) and stained cells using the SpectroFlo Software v2.2.0.1. The unmixed FCS files were used for data processing and analysis using FlowJo (BD, version 10.7.1). Manually gated CD14-HLA-DR*CD86+ cells were used for downstream analysis. gMFI expression values were imported into R environment for correlation and heatmap analysis using the below described R packages.

mDCs generated in vitro = test: scMEP single-cell metabolic regulome profiling by CyTOF
Experimental: scMEP analysis was performed as recently described (Hartmann et al., 2021). In short, antibodies targeting metabolic features were conjugated in-house using an optimized conjugation protocol (Hartmann et al., 2019) and validated on multiple sample types. Cells were prepared for scMEP analysis by incubation with small molecules to be able to assess biosynthesis rates of DNA, RNA and protein, cisplatin-based live/dead staining, PFA-based cell fixation and cryopreservation (dx.doi.org/10.17504/protocols.io.bkwkkxcw). Next, cells were stained with metabolic antibodies in a procedure that includes surface staining for 30 min at RT, PFA-fixation for 10 min at RT, MeOH-based permeabilization for 10 min on ice, intracellular staining for 1 h at RT and DNA intercalation (dx.doi.org/10.17504/protocols.io.bntnmeme). Finally, cells were acquired on a CyTOF2 mass cytometer (Fluidigm). Protein targets and antibody information used in scMEP are listed in supplementary table 2. Raw mass spectrometry data were pre-processed, de-barcoded and imported into R environment using the flowCore package (version 2.0.1) (Hahne et al., 2009). Values were arcsin h transformed (cofactor 5) and normalized (Hartmann et al., 2021) for downstream analyses based on previously reported workflow (Nowicka et al., 2017).

Molecule: CCCCCCCCCCCCCCCC(=O)O [16:0, palmitic acid]
- ox-phos (iDCs): can promote
- CD206 expression on DCs (iDCs; fatty acid alone): increase
- DC differentiation (iDCs; fatty acid alone): tended to promote
- lactate production (iDCs; fatty acid alone): tended to decrease
- lactate production (iDCs; fatty acid alone, listed as palmitic acid): decrease

Molecule: CCCCC/C=C\C/C=C\C/C=C\CCCCCCC(=O)O [20:3 N6, dihomo-γ-linolenic acid]
- CD206 expression at the iDC stage (iDCs and mDCs): immunoregulatory activity
- inhibition of CD206 expression, mDC (iDCs and mDCs): ~-15%
- CD206 expression compared to controls (iDCs and mDCs): significantly reduced

Molecule: CCCCC/C=C\C/C=C\C/C=C\C/C=C\CCCC(=O)O [20:4, arachidonic acid]
- CD206 expression at the iDC stage (iDCs and mDCs): immunoregulatory activity
- inhibition of CD206 expression, mDC (iDCs and mDCs): ~-15%
- CD206 expression compared to controls (iDCs and mDCs): significantly reduced

Molecule: CCCCC/C=C\C/C=C\C/C=C\C/C=C\CCCCCC(=O)O [22:4, adrenic acid]
- inhibition of CD206 expression, mDC (iDCs and mDCs): ~-15%

B1: palmitic acid-bound AFP: alpha fetoprotein non-covalently bound to palmitic acid (protein, UniProt P02771 19-609, looked up)
Alpha-fetoprotein: RTLHRNEYGIASILDSYQCTAEISLADLATIFFAQFVQEATYKEVSKMVKDALTAIEKPTGDEQSSGCLENQLPAFLEELCHEKEILEKYGHSDCCSQSEEGRHNCFLAHKKPTPASIPLFQVPEPVTSCEAYEEDRETFMNKFIYEIARRHPFLYAPTILLWAARYDKIIPSCCKAENAVECFQTKAATVTKELRESSLLNQHACAVMKNFGTRTFQAITVTKLSQKFTKVNFTEIQKLVLDVAHVHEHCCRGDVLDCLQDGEKIMSYICSQQDTLSNKITECCKLTTLERGQCIIHAENDEKPEGLSPNLNRFLGDRDFNQFSSGEKNIFLASFVHEYSRRHPQLAVSVILRVAKGYQELLEKCFQTENPLECQDKGEEELQKYIQESQALAKRSCGLFQKLGEYYLQNAFLVAYTKKAPQLTSSELMAITRKMAATAATCCQLSEDKLLACGEGAADIIIGHLCIRHEMTPVNPGVGQCCTSSYANRRPCFSSLVVDETYVPPAFSDDKFIFHKDLCQAQGVALQTMKQEFLINLVKQKPQITEEQLEAVIADFSGLLEKCCQGQEQEVCFAEEGQKLISKTRAALGV
modifications: non-covalently bound palmitic acid
- CD206 expression in dendritic cells (iDCs and mDCs; fatty acid-bound AFP): increased
- lactate secretion in dendritic cells (iDCs and mDCs; fatty acid-bound AFP): decreased

B2: nAFP: cord blood-derived normal alpha fetoprotein; commercially available (Cell Sciences) (protein, UniProt P02771 19-609, looked up)
Alpha-fetoprotein: B1 Alpha-fetoprotein
- glucose uptake [1]: modestly increases
- FAO [2]: similarly reduces
- glucose dependent metabolism [2]: modestly increases
- levels of cytochrome C (CytC) (mDCs generated in vitro): elevated
